SMILES strings stand for the structures. Calls of active or inactive are those of the source. The rule behind the calls is not given here.

This data set deals with CCRIS mutagenicity, Ames/micronucleus/aberration tests. The data set is described as follows: CCRIS mutagenicity studies.
Setting [1] is: Test System: AMES SALMONELLA TYPHIMURIUM, Strain/Indicator: TA98, Metabolic Activation: NONE, Method: PREINCUBATION
Where [2] appears, read: Test System: AMES SALMONELLA TYPHIMURIUM, Strain/Indicator: TA100, Metabolic Activation: NONE, Method: PREINCUBATION
Setting [3] is: Test System: AMES SALMONELLA TYPHIMURIUM, Strain/Indicator: TA1535, Metabolic Activation: NONE, Method: PREINCUBATION
[4] abbreviates: Test System: AMES SALMONELLA TYPHIMURIUM, Strain/Indicator: TA98, Metabolic Activation: RAT, LIVER, S-9, PHENOBARBITAL AND BETA-NAPHTHOFLAVONE, Method: PREINCUBATION
The mark [5] stands for this setting: Test System: AMES SALMONELLA TYPHIMURIUM, Strain/Indicator: TA100, Metabolic Activation: RAT, LIVER, S-9, PHENOBARBITAL AND BETA-NAPHTHOFLAVONE, Method: PREINCUBATION
Where [6] appears, read: Test System: AMES SALMONELLA TYPHIMURIUM, Strain/Indicator: TA1537, Metabolic Activation: NONE, Method: STANDARD PLATE.

Turning to `CCCCCCCCCCCCCCCCN`, the mutagenic call reads like this: (Test System: AMES SALMONELLA TYPHIMURIUM, Strain/Indicator: TA97, Metabolic Activation: HAMSTER, LIVER, S-9, AROCLOR 1254 (10 OR 30%), Method: PREINCUBATION) “inactive; negative”; (Test System: AMES SALMONELLA TYPHIMURIUM, Strain/Indicator: TA97, Metabolic Activation: NONE, Method: PREINCUBATION) “inactive; negative”; (Test System: AMES SALMONELLA TYPHIMURIUM, Strain/Indicator: TA97, Metabolic Activation: RAT, LIVER, S-9, AROCLOR 1254 (10 OR 30%), Method: PREINCUBATION) “inactive; negative”; (Test System: AMES SALMONELLA TYPHIMURIUM, Strain/Indicator: TA98, Metabolic Activation: HAMSTER, LIVER, S-9, AROCLOR 1254 (10 OR 30%), Method: PREINCUBATION) “inactive; negative”; under setting [1], “inactive; negative”; (Test System: AMES SALMONELLA TYPHIMURIUM, Strain/Indicator: TA98, Metabolic Activation: RAT, LIVER, S-9, AROCLOR 1254 (10 OR 30%), Method: PREINCUBATION) “inactive; negative”. The mutagenic call (Test System: AMES SALMONELLA TYPHIMURIUM, Strain/Indicator: TA100, Metabolic Activation: HAMSTER, LIVER, S-9, AROCLOR 1254 (10 OR 30%), Method: PREINCUBATION) was “inactive; negative”; the mutagenic call under setting [2] was “inactive; negative”; the mutagenic call (Test System: AMES SALMONELLA TYPHIMURIUM, Strain/Indicator: TA100, Metabolic Activation: RAT, LIVER, S-9, AROCLOR 1254 (10 OR 30%), Method: PREINCUBATION) is “inactive; negative”; the mutagenic call (Test System: AMES SALMONELLA TYPHIMURIUM, Strain/Indicator: TA1535, Metabolic Activation: HAMSTER, LIVER, S-9, AROCLOR 1254 (10 OR 30%), Method: PREINCUBATION) is “inactive; negative”; the mutagenic call under setting [3] was “inactive; negative”; the mutagenic call (Test System: AMES SALMONELLA TYPHIMURIUM, Strain/Indicator: TA1535, Metabolic Activation: RAT, LIVER, S-9, AROCLOR 1254 (10 OR 30%), Method: PREINCUBATION) is “inactive; negative”.
In the case of `NCc1ccc(CN)cc1`, the mutagenic call is “inactive; negative” (End Point: IN VITRO CHROMOSOMAL ABERRATIONS, Test System: CHL CELLS, Metabolic Activation: NONE); “inactive; negative” (End Point: IN VITRO CHROMOSOMAL ABERRATIONS, Test System: CHL CELLS, Metabolic Activation: RAT, LIVER, S-9, SODIUM PHENOBARBITAL AND 5,6-BENZOFLAVONE); “inactive; negative” under setting [1]; “inactive; negative” under setting [4]; “inactive; negative” under setting [2]; “inactive; negative” under setting [5]. Further, the mutagenic call is “inactive; negative” (Test System: AMES SALMONELLA TYPHIMURIUM, Strain/Indicator: TA102, Metabolic Activation: NONE, Method: PREINCUBATION); “inactive; negative” (Test System: AMES SALMONELLA TYPHIMURIUM, Strain/Indicator: TA102, Metabolic Activation: RAT, LIVER, S-9, PHENOBARBITAL AND BETA-NAPHTHOFLAVONE, Method: PREINCUBATION); “inactive; negative” under setting [3]; “inactive; negative” (Test System: AMES SALMONELLA TYPHIMURIUM, Strain/Indicator: TA1535, Metabolic Activation: RAT, LIVER, S-9, PHENOBARBITAL AND BETA-NAPHTHOFLAVONE, Method: PREINCUBATION); “inactive; negative” (Test System: AMES SALMONELLA TYPHIMURIUM, Strain/Indicator: TA1537, Metabolic Activation: NONE, Method: PREINCUBATION); “inactive; negative” (Test System: AMES SALMONELLA TYPHIMURIUM, Strain/Indicator: TA1537, Metabolic Activation: RAT, LIVER, S-9, PHENOBARBITAL AND BETA-NAPHTHOFLAVONE, Method: PREINCUBATION). The mutagenic call was “inactive; negative” (Test System: E. COLI, Strain/Indicator: WP2UVRA/PKM101, Metabolic Activation: NONE, Method: PREINCUBATION); “inactive; negative” (Test System: E. COLI, Strain/Indicator: WP2UVRA/PKM101, Metabolic Activation: RAT, LIVER, S-9, PHENOBARBITAL AND BETA-NAPHTHOFLAVONE, Method: PREINCUBATION); “inactive; negative” (Test System: E. COLI, Strain/Indicator: WP2UVRA/PKM101, Metabolic Activation: RAT, LIVER, S-9, SODIUM PHENOBARBITAL AND 5,6-BENZOFLAVONE, Method: PREINCUBATION); “inactive; negative” (Test System: E. COLI, Strain/Indicator: WP2UVRA, Metabolic Activation: NONE, Method: PREINCUBATION); “inactive; negative” (Test System: E. COLI, Strain/Indicator: WP2UVRA, Metabolic Activation: RAT, LIVER, S-9, PHENOBARBITAL AND BETA-NAPHTHOFLAVONE, Method: PREINCUBATION).
For `CCCCCNC(=O)/C=C/c1ccc([N+](=O)[O-])o1`, the mutagenic call under setting [1] was “active; positive”.
On to `O=Nn1cc(CCO)c2ccccc21`, for which the mutagenic call was “active; positive” (Test System: AMES SALMONELLA TYPHIMURIUM, Strain/Indicator: TA97A, Metabolic Activation: NONE, Method: STANDARD PLATE); “active; positive” (Test System: AMES SALMONELLA TYPHIMURIUM, Strain/Indicator: TA98, Metabolic Activation: NONE, Method: STANDARD PLATE); “active; positive” (Test System: AMES SALMONELLA TYPHIMURIUM, Strain/Indicator: TA100, Metabolic Activation: NONE, Method: STANDARD PLATE); “active; positive” (Test System: AMES SALMONELLA TYPHIMURIUM, Strain/Indicator: TA1535, Metabolic Activation: NONE, Method: STANDARD PLATE); “active; positive” under setting [6].
Regarding `C=CCn1cc2c3c(cccc31)C1C[C@@H](C)CN(C#N)[C@@H]1C2` (stereo partly specified), the mutagenic call (Test System: AMES SALMONELLA TYPHIMURIUM, Strain/Indicator: TA100, Metabolic Activation: RAT, LIVER, S-9, AROCLOR 1254, Method: STANDARD PLATE) was “active; positive”.
As for `O=C([O-])c1ccc2ccccc2c1.O=C([O-])c1ccc2ccccc2c1.[Pb+2]`, the mutagenic call (Test System: MOUSE LYMPHOMA, Strain/Indicator: L5178Y (TK+/TK-), Metabolic Activation: NONE, Method: SUSPENSION/PLATE) is “active; positive. reevaluation of results: equivocal”.
Take `CN(C)CCNC(=O)c1cccc2nc(-c3ccccc3)oc12`: the mutagenic call under setting [6] was “inactive; negative”.
`CC(C)CCC[C@@H](C)[C@H]1CC[C@H]2[C@@H]3CC4([C@H]5C[C@@H](Br)CC[C@]5(C)[C@H]3CC[C@]12C)S(=O)(=O)CCS4(=O)=O`: the mutagenic call was “inactive; negative” (Test System: AMES SALMONELLA TYPHIMURIUM, Strain/Indicator: TA97A, Metabolic Activation: NONE); “active; positive” (Test System: AMES SALMONELLA TYPHIMURIUM, Strain/Indicator: TA97A, Metabolic Activation: RAT, LIVER, S-9, AROCLOR 1254); “inactive; negative” (Test System: AMES SALMONELLA TYPHIMURIUM, Strain/Indicator: TA98, Metabolic Activation: NONE); “inactive; negative” (Test System: AMES SALMONELLA TYPHIMURIUM, Strain/Indicator: TA100, Metabolic Activation: NONE); “inactive; negative” (Test System: AMES SALMONELLA TYPHIMURIUM, Strain/Indicator: TA100, Metabolic Activation: RAT, LIVER, S-9, AROCLOR 1254); “active; positive” (Test System: AMES SALMONELLA TYPHIMURIUM, Strain/Indicator: TA102, Metabolic Activation: NONE). Moreover, the mutagenic call runs as follows: (Test System: AMES SALMONELLA TYPHIMURIUM, Strain/Indicator: TA102, Metabolic Activation: RAT, LIVER, S-9, AROCLOR 1254) “active; positive”; (Test System: AMES SALMONELLA TYPHIMURIUM, Strain/Indicator: TA104, Metabolic Activation: NONE) “active; positive”; (Test System: AMES SALMONELLA TYPHIMURIUM, Strain/Indicator: TA104, Metabolic Activation: RAT, LIVER, S-9, AROCLOR 1254) “active; positive”.
For `N#Cc1cc([N+](=O)[O-])ccc1N`, the mutagenic call under setting [1] was “active; positive”, the mutagenic call under setting [4] is “active; positive”, the mutagenic call under setting [2] was “active; positive” and the mutagenic call under setting [5] is “active; positive”.

The values are drawn from PubChem BioAssay AID1259407 (Chemical Carcinogenesis Research Information System (CCRIS), 2018).
